This note sets out measurements from patent US12152038B2, “Vasopressin receptor antagonists and products and methods related thereto” (Neumora Therapeutics, Inc., priority 2017, dated 2024).

Experiment [1] deals with T1, human Arginine Vasopressin Receptor V2 (AVPR2) (Homo sapiens, UniProt P30518).
T1 construct: host or cells: 1321N1 (cAMPZen V2 assay ready frozen cells)
The experiment can be described thus: Vasopressin V2 receptor antagonist assay (TR-FRET cAMP, 1321N1 cells). The format is cell-based. The method, then: The purpose of the assay was to determine the inhibitory effect of synthesized compounds on the Vasopressin receptor 2. The assay was performed in commercially available 1321N1 cells expressing the human Arginine Vasopressin Receptor V2 (AVPR2) (Perkin Elmer #ES-363-CF). Arginine Vasopressin (AVP) evokes an increase in intracellular cAMP in these cells which is measured in a TR-FRET assay using a Europium cAMP tracer and ULight labelled antibody reagents contained in a LANCE Ultra cAMP kit (Perkin Elmer #TRF0263). Increases in cAMP in the assay result in a reduction in TR-FRET as the cAMP produced by the stimulated cells competes with the Eu-cAMP tracer for binding sites on the ULight labelled antibody. Test compounds were assessed for their ability to affect the magnitude of the response to AVP, with antagonists showing a concentration-dependent decrease in the AVP-mediated reduction in TR-FRET signal.
cAMPZen V2 assay ready cells were thawed at 37° C. and resuspended directly from frozen in 9 ml growth medium consisting of DMEM supplemented with 10% v/v fetal bovine serum, 1× non-essential amino acids, and 1 mM sodium pyruvate. Cells were spun at 1000 rpm for 3 minutes and the supernatant was carefully removed and discarded. The pellet was resuspended in 5 ml stimulation buffer and the cell density determined using the Vi-Cell automated cell counter. The cell suspension was diluted to a 0.2×10^6/ml suspension ready for plating. To all wells of a white 384-well Optiplate (Perkin Elmer #6007299) 5 μL of cells in stimulation buffer were dispensed (1,000 cells per well). Stimulation buffer consisted of HBSS (+Ca/+Mg) supplemented with 5 mM HEPES, 0.1% BSA stabiliser and 0.5 mM IBMX.
At the start of each assay day the potency of AVP was assessed and an EC80 concentration determined for subsequent compound profiling. Assays were performed by first an addition of 2.5 μl of control or test compound at 4× final concentration in stimulation buffer followed by 2.5 μl of AVP at 4× final concentration in stimulation buffer. After a 1 hour reaction, detection reagents were added by first an addition of 5 μl EU-cAMP tracer, followed by 5 μl ULight-anti-cAMP both diluted as per the manufacturer's instructions. After a one hour incubation, plates were ready to be read (signals then remained stable for up to 24 hours). Changes in time resolved fluorescence were monitored with excitation via a laser (337 nm) measuring both 615 nm and 665 nm emission wavelengths. […] For compound profiling, test compounds were dispensed by the Labcyte Echo (10-point curve, 1:3 dilutions) in a target 0.1 μl volume then diluted 750-fold in stimulation buffer containing 3% DMSO prior to addition to the cells. At the end of the incubation period, 2.5 μl of AVP in stimulation buffer was added at the previously determined EC80 concentration.
In-plate controls for the assay included a Tolvaptan concentration-response curve as the reference V2 antagonist and an AVP concentration-response curve to confirm the reproducibility of the EC80 used for the compound challenge.

Experiment [2] deals with T2, human Oxytocin Receptor (hOTR) (Homo sapiens, UniProt P30559).
T2 construct: host or cells: CHEM-1 (ready-to-assay frozen cells)
T2 sequence (P30559 1-389): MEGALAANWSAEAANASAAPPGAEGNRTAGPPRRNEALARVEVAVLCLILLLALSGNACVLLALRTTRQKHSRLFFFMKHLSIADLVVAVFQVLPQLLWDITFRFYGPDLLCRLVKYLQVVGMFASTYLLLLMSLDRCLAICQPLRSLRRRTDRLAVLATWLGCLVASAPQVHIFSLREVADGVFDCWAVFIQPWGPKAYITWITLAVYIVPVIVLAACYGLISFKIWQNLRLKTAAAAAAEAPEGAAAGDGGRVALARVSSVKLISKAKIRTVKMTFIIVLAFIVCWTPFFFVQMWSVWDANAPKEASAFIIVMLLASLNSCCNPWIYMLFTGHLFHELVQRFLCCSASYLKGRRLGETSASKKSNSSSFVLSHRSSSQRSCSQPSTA
The experiment can be described thus: Oxytocin receptor (OTR) antagonist assay (FLIPR calcium, CHEM-1-hOTR cells). Format: cell-based. The gist of the method: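 CHEM-1 cells expressing human OTR were loaded with Calcium-6 dye in HBSS/20 mM HEPES and preincubated with compound (10-point, 1:3 series) for 15 min at 37° C. Cells were then challenged with oxytocin at its daily-determined EC80. Calcium fluorescence was read on FLIPR for 3 min after each addition.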

Bounds are passed on as bounds.

T1 sequence (P30518 whole entry): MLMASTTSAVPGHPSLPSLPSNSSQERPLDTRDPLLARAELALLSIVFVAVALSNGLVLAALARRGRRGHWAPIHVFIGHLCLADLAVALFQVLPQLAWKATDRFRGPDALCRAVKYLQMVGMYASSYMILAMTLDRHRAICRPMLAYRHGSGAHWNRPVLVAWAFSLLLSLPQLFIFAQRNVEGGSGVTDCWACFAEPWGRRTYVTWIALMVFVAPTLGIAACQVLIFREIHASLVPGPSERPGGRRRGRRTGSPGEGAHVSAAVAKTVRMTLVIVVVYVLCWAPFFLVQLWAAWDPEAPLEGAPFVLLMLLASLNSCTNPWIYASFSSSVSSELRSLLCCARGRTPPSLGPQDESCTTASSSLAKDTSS

As to `O=C(N1CC2(C1)CN(c1ccc(F)cn1)C2)N1CCOc2cc(Cl)ccc21` [9-7], the half-inhibitory concentration (IC50) in experiment [1] and in experiment [2] was at least 1000 nM throughout.
Regarding `CCC1COc2cc(Cl)ccc2N1C(=O)N1CC2(C1)CN(c1ccccn1)C2` (centres unmarked) [11-1, (7-chloro-3-ethyl-2,3-dihydro-4H-benzo[b][1,4]oxazin-4-yl)(6-(pyridin-2-yl)-2,6-diazaspiro[3.3]heptan-2-yl)methanone], the IC50 in experiment [1] and in experiment [2] was under 100 nM throughout.
As for `CC1COc2cc(F)ccc2N1C(=O)N1CC2(C1)CN(c1ccc(F)cn1)C2` (centres unmarked) [12-1, (7-fluoro-3-methyl-2,3-dihydro-4H-benzo[b][1,4]oxazin-4-yl)(6-(5-fluoropyridin-2-yl)-2,6-diazaspiro[3.3]heptan-2-yl)methanone], the IC50 (usually the point on the concentration scale where inhibition reaches its midpoint) in experiment [1] lay in the range of 100 to 500 nM; in experiment [2], 500 to 1000 nM.
Consider `O=C(N1CC2(C1)CN(c1cnccn1)C2)N1CCC(O)c2cc(Cl)ccc21` (centres unmarked) [13-3], for which the IC50 in experiment [1] and in experiment [2] was at least 1000 nM in each case.
Take `O=C(N1CC2(C1)CN(c1ccc(F)cn1)C2)N1CCC(F)c2cc(Cl)ccc21` (centres unmarked) [14-1, (6-chloro-4-fluoro-3,4-dihydroquinolin-1(2H)-yl)(6-(5-fluoropyridin-2-yl)-2,6-diazaspiro[3.3]heptan-2-yl)methanone]: the IC50 in experiment [1] and in experiment [2] was at least 1000 nM in each case.
In the case of `CC1COc2cc(Cl)ccc2N1C(=O)N1CC2(C1)CN(c1noc3cccnc13)C2` (centres unmarked) [18-3], the IC50 in experiment [1] was 100 to 500 nM; in experiment [2], at least 1000 nM.
In the same order, the values of `CC1COc2cc(Cl)c(F)cc2N1C(=O)N1CC2(C1)CN(c1ncccn1)C2` (centres unmarked) [19-2] are at least 1000 nM and 500 to 1000 nM.
In the case of `CC1COc2cc(Cl)c(F)cc2N1C(=O)N1CC2(C1)CN(c1cccnn1)C2` (centres unmarked) [19-4], the figures for the IC50 in experiment [1] and in experiment [2] were at least 1000 nM and 100 to 500 nM, respectively.
With `CC1COc2cc(F)c(F)cc2N1C(=O)N1CC2(C1)CN(c1ccc(F)cn1)C2` (centres unmarked) [19-5], the IC50 in experiment [1] is under 100 nM; in experiment [2], 100 to 500 nM.
In the case of `CC1COc2cc(Cl)c(F)cc2N1C(=O)N1CC2(C1)CN(c1cccnc1)C2` (centres unmarked) [19-6], the IC50 in experiment [1] is at least 1000 nM; in experiment [2] it was 100 to 500 nM.
Consider `CC1COc2cc(Cl)ccc2N1C(=O)N1CC2(C1)CN(c1cccnc1)C2` (centres unmarked) [20-1, (7-chloro-3-methyl-2,3-dihydro-4H-benzo[b][1,4]oxazin-4-yl)(6-(pyridin-3-yl)-2,6-diazaspiro[3.3]heptan-2-yl)methanone], for which the values for the IC50 in experiment [1] and in experiment [2] were at least 1000 nM and 100 to 500 nM, respectively.
For `Cc1cncc(N2CC3(CN(C(=O)N4c5ccc(F)cc5OCC4C)C3)C2)n1` (centres unmarked) [20-2], the IC50 is under 100 nM in experiment [1] and 100 to 500 nM in experiment [2].
Regarding `CC1COc2cc(Cl)ccc2N1C(=O)N1CC2(C1)CN(c1cc(C#N)ccn1)C2` (centres unmarked) [20-6], the IC50 in experiment [1] and in experiment [2] was under 100 nM each time.
As for `Cc1nc(N2CC3(CN(C(=O)N4c5ccc(Cl)cc5OCC4C)C3)C2)ncc1F` (centres unmarked) [20-7], the IC50 in experiment [1] and in experiment [2] was 100 to 500 nM throughout.
On to `COc1ccnc(N2CC3(CN(C(=O)N4c5ccc(Cl)cc5OCC4C)C3)C2)c1` (centres unmarked) [20-8], for which the IC50 in experiment [1] and in experiment [2] was 100 to 500 nM each time.
On to `COc1ccnc(N2CC3(CN(C(=O)N4c5ccc(Cl)cc5OCC4C)C3)C2)n1` (centres unmarked) [20-9], for which the IC50 in experiment [1] and in experiment [2] was 100 to 500 nM each time.
For the molecule `Cc1nccnc1N1CC2(CN(C(=O)N3c4ccc(Cl)cc4OCC3C)C2)C1` (centres unmarked) [20-10], the IC50 in experiment [1] was in the range of 500 to 1000 nM; in experiment [2], 100 to 500 nM.
Consider `Cc1ccnc(N2CC3(CN(C(=O)N4c5ccc(Cl)cc5OCC4C)C3)C2)c1` (centres unmarked) [20-11], for which the half-maximal inhibitory concentration (IC50) in experiment [1] was under 100 nM; in experiment [2], 100 to 500 nM.
Consider `Cc1ccnc(N2CC3(CN(C(=O)N4c5ccc(Cl)cc5OCC4C)C3)C2)n1` (centres unmarked) [20-12], for which the IC50 was under 100 nM in experiment [1] and 100 to 500 nM in experiment [2].
